Reference: ChEMBL document CHEMBL1134618, “Synthesis and biological evaluation of sialylmimetics as rotavirus inhibitors” (J Med Chem, 2001)

How the values were obtained:
Rotavirus [1] = test: Inhibitory activity against bovine NCDV Rotavirus strain; type: functional, organism-based
Rotavirus [2] = test: Inhibitory activity against human Wa Rotavirus strain; type: functional, organism-based

IC50 (Rotavirus [1]) [mM]	IC50 (Rotavirus [2]) [mM]	Compound
> 25	> 25	CCC(SC[C@@H]1O[C@@H](OC)[C@@H](O)[C@@H](O)[C@@H]1O)C(=O)O (stereo partly specified)
> 25	> 25	CO[C@@H]1O[C@@H](CSC(CCO)C(=O)O)[C@@H](O)[C@H](O)[C@@H]1O (stereo partly specified)
> 25	> 25	CO[C@@H]1O[C@@H](CSC(C(=O)O)c2ccccc2)[C@@H](O)[C@H](O)[C@@H]1O (stereo partly specified)
25	> 25	CCC(SC[C@@H]1O[C@@H](OC)[C@@H](O)[C@@H](O)[C@H]1O)C(=O)O (stereo partly specified)
> 25	> 25	CO[C@@H]1O[C@@H](CSC(C(=O)O)c2ccccc2)[C@H](O)[C@H](O)[C@@H]1O (stereo partly specified)
> 25	> 25	CO[C@@H]1O[C@@H](CSC(CCO)C(=O)O)[C@H](O)[C@H](O)[C@@H]1O (stereo partly specified)
	> 25	COC1OC(CSC2(C(=O)O)CC(O)C(NC(C)=O)C([C@H](O)[C@H](O)CO)O2)C(O)C(O)C1O (stereo partly specified)
> 25	> 25	COC1OC(CSC(C)C(=O)O)C(O)C(O)C1O (stereo unspecified)
6.25	6.25	CCC(SC[C@@H]1O[C@@H](O[C@H]2[C@H](O)[C@H](O)[C@H](OC)O[C@H]2CO)[C@@H](O)[C@@H](O)[C@H]1O)C(=O)O (stereo partly specified)
12.5	25	CO[C@@H]1O[C@@H](CO)[C@@H](O[C@@H]2O[C@@H](CSC(C(=O)O)c3ccccc3)[C@H](O)[C@H](O)[C@@H]2O)[C@H](O)[C@@H]1O (stereo partly specified)
12.5	6.25	CO[C@@H]1O[C@@H](CO)[C@@H](O[C@@H]2O[C@@H](CSC(C)C(=O)O)[C@H](O)[C@H](O)[C@@H]2O)[C@H](O)[C@@H]1O (stereo partly specified)
